Experimental data as given in US20090124619A1, “NOVEL COMPOUNDS” (priority 2005, published 2009).

What was measured:
TRPV4 = molecular target: T1, TRPV4 (Homo sapiens, UniProt Q9HBA0); assay: FLIPR assay using TRPV4 expressing HEK cells; format: cell-based; settings: FLIPR method; pEC50 = −log10(EC50 μM)
T1 construct: expressed in transfected cells; host or cells: HEK cells
Description: Other techniques used to measure TRPV4 channel receptor activation in chondrocytes include, but are not limited to: FLIPR assay, measuring a compound's capability to reduce the amount of ADAMTSs produced and/or released in response to a catabolic stimulus by a cell comprising a TRPV4 channel receptor; measuring a compound's capability to reduce the amount of MMPs produced and/or released in response to a catabolic stimulus by a cell comprising a TRPV4 channel receptor; measuring a compound's capability to effect the amount of nitric oxide (NO) produced in response to a catabolic stimulus by a cell comprising a TRPV4 channel receptor; and measuring a compound's capability to attenuate the inhibition of matrix synthesis in response to a catabolic stimulus by a cell comprising a TRPV4 channel receptor.
(§1) All exemplary compounds of the present invention were assessed using at least one of the biological assays presented above. Compounds presented in the Examples had EC50 values of about 0.01 μM to 30 μM as measured by Flex Station using bovine articular chondrocytes and pEC50 values between about 5.0 to about 7.5 as measured by FLIPR assay using TRPV4 expressing HEK cells.

TRPV4 channel receptors = molecular target: T2, TRPV4 channel receptors (Bos taurus, UniProt A0A8F4X677); assay: Ca2+ influx, Fura-2 fluorescence on FlexStation in bovine articular chondrocytes; format: cell-based
T2 construct: obtained using this method in bovine articular chondrocytes; endogenous in cells; host or cells: bovine articular chondrocytes (primary)
T2 sequence (A0A8F4X677 1-871): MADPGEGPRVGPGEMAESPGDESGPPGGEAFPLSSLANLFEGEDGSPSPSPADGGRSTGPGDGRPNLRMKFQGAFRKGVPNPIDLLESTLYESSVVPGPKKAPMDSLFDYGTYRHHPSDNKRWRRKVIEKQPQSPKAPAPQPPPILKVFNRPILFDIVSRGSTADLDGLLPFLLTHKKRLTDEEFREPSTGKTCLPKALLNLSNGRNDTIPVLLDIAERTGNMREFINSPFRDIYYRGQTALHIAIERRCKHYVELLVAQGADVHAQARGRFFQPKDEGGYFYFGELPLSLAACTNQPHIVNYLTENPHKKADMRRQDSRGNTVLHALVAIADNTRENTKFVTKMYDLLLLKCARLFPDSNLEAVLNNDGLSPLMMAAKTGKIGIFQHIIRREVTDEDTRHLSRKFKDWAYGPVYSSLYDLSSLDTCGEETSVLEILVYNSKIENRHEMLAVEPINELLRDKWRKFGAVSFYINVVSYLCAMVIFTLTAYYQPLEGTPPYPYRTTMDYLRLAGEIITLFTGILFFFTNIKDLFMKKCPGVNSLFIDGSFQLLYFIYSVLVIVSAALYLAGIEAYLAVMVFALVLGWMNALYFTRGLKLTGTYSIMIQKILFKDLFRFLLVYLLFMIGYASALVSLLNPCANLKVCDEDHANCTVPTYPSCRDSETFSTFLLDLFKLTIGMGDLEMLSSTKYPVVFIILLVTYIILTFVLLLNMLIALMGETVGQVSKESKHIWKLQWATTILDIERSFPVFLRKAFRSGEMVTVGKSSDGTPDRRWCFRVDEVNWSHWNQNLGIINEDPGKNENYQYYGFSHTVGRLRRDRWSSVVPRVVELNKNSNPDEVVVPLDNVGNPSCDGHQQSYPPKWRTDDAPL
Description: Ca^2+ influx mediated through TRPV4 channel receptors can be measured using articular chondrocytes from such species as, but not limited to, human, rat, canine, rabbit, monkey, and bovine, using standard techniques in the art such as, but not limited to, Fura-2 (Invitrogen/Molecular Probes, Eugene, Oreg.) fluorescence using a FlexStation (manufactured by Molecular Devices, Sunnyvale, Calif.). Table 1 lists biological data for several representative compounds obtained using this method in bovine articular chondrocytes.
as §1

T1 sequence (Q9HBA0 whole entry): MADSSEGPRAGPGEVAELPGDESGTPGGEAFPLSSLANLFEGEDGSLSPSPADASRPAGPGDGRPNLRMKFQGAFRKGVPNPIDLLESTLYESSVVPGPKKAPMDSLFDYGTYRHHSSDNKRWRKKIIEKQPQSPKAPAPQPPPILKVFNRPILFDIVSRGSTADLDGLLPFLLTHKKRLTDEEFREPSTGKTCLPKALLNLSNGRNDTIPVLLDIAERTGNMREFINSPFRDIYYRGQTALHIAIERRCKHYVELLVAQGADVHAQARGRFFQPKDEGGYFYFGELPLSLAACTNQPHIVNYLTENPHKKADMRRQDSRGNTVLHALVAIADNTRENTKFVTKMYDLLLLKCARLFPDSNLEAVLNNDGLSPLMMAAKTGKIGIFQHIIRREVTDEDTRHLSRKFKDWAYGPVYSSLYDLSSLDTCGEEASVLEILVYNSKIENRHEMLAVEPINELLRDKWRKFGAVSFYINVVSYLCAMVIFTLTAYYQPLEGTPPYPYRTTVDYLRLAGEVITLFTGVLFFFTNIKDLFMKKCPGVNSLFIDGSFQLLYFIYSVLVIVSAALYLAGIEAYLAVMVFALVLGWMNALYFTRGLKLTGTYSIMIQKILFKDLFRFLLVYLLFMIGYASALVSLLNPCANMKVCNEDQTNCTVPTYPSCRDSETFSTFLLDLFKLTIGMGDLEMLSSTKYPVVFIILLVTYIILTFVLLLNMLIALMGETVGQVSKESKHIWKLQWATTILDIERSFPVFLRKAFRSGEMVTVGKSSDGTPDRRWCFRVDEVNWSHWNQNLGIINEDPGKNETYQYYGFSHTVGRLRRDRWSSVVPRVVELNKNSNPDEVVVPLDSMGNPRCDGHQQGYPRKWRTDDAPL

SMILES	EC50 (TRPV4) [µM]	EC50 (TRPV4 channel receptors) [nM]
CC[C@H](C)[C@H](NC(=O)c1cc2ccccc2s1)C(=O)NCC1CN(S(=O)(=O)c2ccccc2C#N)CCO1 (stereo partly drawn) [Example 18, N-((1S,2S)-1-{[({4-[(2-cyanophenyl)sulfonyl]-2-morpholinyl}methyl)amino]carbonyl}-2-methylbutyl)-1-benzothiophene-2-carboxamide]		> 900
CC(C)C[C@H](NC(=O)c1cc2ccccc2s1)C(=O)NC[C@@H]1CN(S(=O)(=O)c2ccccc2C#N)CCO1 [Example 21, N-((1S)-1-{[({(2R)-4-[(2-cyanophenyl)sulfonyl]-2-morpholinyl}methyl)amino]carbonyl}-3-methylbutyl)-1-benzothiophene-2-carboxamide]		1 to 160
CC(C)C[C@H](NC(=O)c1cc2ccccc2s1)C(=O)NC[C@H]1CN(S(=O)(=O)c2ccccc2C#N)CCO1 [Example 24, N-((1S)-1-{[({(2S)-4-[(2-cyanophenyl)sulfonyl]-2-morpholinyl}methyl)amino]carbonyl}-3-methylbutyl)-1-benzothiophene-2-carboxamide]		160 to 900

Now from value to molecule:

EC50 (TRPV4) [µM]	EC50 (TRPV4 channel receptors) [nM]	SMILES
≤ 0.1		CC(C)C[C@H](NC(=O)c1cc2ccccc2s1)C(=O)NCC1CN(S(=O)(=O)c2ccc(Cl)cc2Cl)CCO1 (stereo partly drawn) [Example 14, N-((1S)-1-{[({4-[(2,4-dichlorophenyl)sulfonyl]-2-morpholinyl}methyl)amino]carbonyl}-3-methylbutyl)-1-benzothiophene-2-carboxamide]
0.1 to 1.12		CC(C)[C@H](NC(=O)CCC1CCCC1)C(=O)NCC1CN(S(=O)(=O)c2ccccc2C#N)CCO1 (stereo partly drawn) [Example 44, N1-({4-[(2-cyanophenyl)sulfonyl]-2-morpholinyl}methyl)-N2-(3-cyclopentylpropanoyl)-L-valinamide]
1.12 to 10		O=C(CCC1CCCC1)N[C@H](C(=O)NCC1CN(S(=O)(=O)c2ccc(Cl)cc2Cl)CCO1)c1ccccc1 (stereo partly drawn) [Example 60, 3-cyclopentyl-N-{(1S)-2-[({4-[(2,4-dichlorophenyl)sulfonyl]-2-morpholinyl}methyl)amino]-2-oxo-1-phenylethyl}propanamide]
